Assays:
[1] = target: T1, IL-17A(FLAG-Tagged): IL-17RA(His-Tagged) (Homo sapiens, UniProt Q16552, K93Q); assay: IL-17A(FLAG-Tagged): IL-17RA(His-Tagged) Binding Disruption Eu-HTRF Assay, Protocol 1; conditions: Protocol 1, FLAG tagged IL-17A 2.5 nM; simple average if tested more than once
How it was run: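 IC50 came from a one-site competition fit of the acceptor/donor (665/620 nm) HTRF ratio. His-tagged IL-17RA, Eu-anti-FLAG and D2-anti-His were added after a 1 h rt compound preincubation with FLAG-tagged IL-17A dimer in PBS/0.01% Triton X-100, followed by 2 h at rt before reading.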

[2] = target: T1, IL-17A(FLAG-Tagged): IL-17RA(His-Tagged); assay: IL-17A(FLAG-Tagged): IL-17RA(His-Tagged) Binding Disruption Eu-HTRF Assay, Protocol 2; conditions: Protocol 2, FLAG tagged IL-17A 1 nM; simple average if tested more than once
Excerpt: An antibody directed against the FLAG tag of IL-17A (SEQ ID NO: 1) is labeled with the HTRF donor chromophore (Europium-cryptate). IL-17A is present as a dimer that is “locked into” this quaternary structure due to the formation of loop-spanning […] disulfide bridges. The construct of IL-17RA used in the assay excludes the […] portion of the receptor and is fused to a C-terminal 10×His tag (SEQ ID NO:2). An antibody directed against the His tag of the IL-17RA chimera is labeled with the HTRF acceptor chromophore (“D2”). The fluorescence-resonance energy transfer (FRET) depends on the vicinity of the donor chromophore to the acceptor, and interruption of the binding between the IL-17A and IL-17RA causes the reduction/loss of FRET. Therefore, this assay allows to evaluate the compound effect on the binding IL-17A and IL-17RA by monitoring the fluorescence intensity of donor vs acceptor. The assay was run using either Protocol 1 or Protocol 2 as described below.
Protocol 2. 40 nl of 2-fold serial diluted compound solution for total 22 dilution points is added into each well of a 1536-well, white, low-volume, non-binding plate (Greiner #782904), then 2 μl of FLAG tagged IL-17A at 2× final concentration (1 nM) in solution of PBS+0.01% Triton-X100 is added to each well. The assay plate is briefly centrifuged then incubated for 1 h at rt. A mixed solution is prepared containing 2×5 nM 10HIS×IL-17RA, 2×2.5 nM Eu-anti-FLAG (CISBIO), 2×5 nM D2-anti-HIS (CISBIO) in PBS+0.01% Triton-X100+200 mM Potassium Fluoride (Sigma 60238) and 2 μl of mix is added to each well of the assay plate. The plate is briefly centrifuged then incubated for 2 h at rt. The HTRF intensities at the wavelength of donor (615 nm) and acceptor (665 nm) are measured using BMG Pherastar. The ratio between intensities at two wavelengths is calculated and plotted against the compound concentration and the data is fitted to a one-site competition model to yield IC50 of the compound.

[3] = tested on: IL-17A-induced G-CSF production in human normal keratinocyte (NHK); assay: NHK Assay: IL-17A-induced G-CSF production in human normal keratinocyte; assay type: cell-based; conditions: Homo sapiens, Keratinocyte, 24 h, IL-17A 5 ng/mL, simple average if tested more than once
How it was run: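 Compound titrations are first mixed with recombinant human IL-17A for 1 h at room temperature. The mixture goes onto adult normal human keratinocytes (final IL-17A 5 ng/mL, 5% FBS, 0.2% DMSO) for 24 h at 37 °C. Secreted G-CSF is then measured by HTRF and IC50 fitted.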

[4] = tested on: patients with moderate-to-severe HS; conditions: seven of nine patients with moderate-to-severe HS, open-label pilot-trial; cited from earlier work

T1 sequence (Q16552 with tags, fused parts or gaps K93Q): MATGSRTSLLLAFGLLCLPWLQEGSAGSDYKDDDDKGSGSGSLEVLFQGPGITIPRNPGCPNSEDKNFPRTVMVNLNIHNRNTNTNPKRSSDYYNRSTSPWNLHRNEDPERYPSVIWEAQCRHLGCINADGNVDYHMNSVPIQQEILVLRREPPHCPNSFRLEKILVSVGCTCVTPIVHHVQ

Row | Molecule | IC50 [1] [nM] | IC50 [2] [nM] | IC50 [3] [nM] | patients achieved HiSCR [4] [%]
1 | COC[C@H](c1ccc2[nH]c(C(COC(C)(C)C(F)(F)F)NC(=O)c3ncnn3C(C)C)nc2c1)N1CC(F)(F)CNC1=O (single isomer, unassigned) [Example 52, N—((R*)-1-(5-((S)-1-(5,5-Difluoro-2-oxotetrahydropyrimidin-1(2H)-yl)-2-methoxyethyl)-1H-benzo[d]imidazol-2-yl)-2-((1,1,1-trifluoro-2-methylpropan-2-yl)oxy)ethyl)-1-isopropyl-1H-1,2,4-triazole-5-carboxamide] | < 50 | < 50 | < 50 | 
2 | secukinumab |  |  |  | 78
3 | CC(C)n1ncc(F)c1C(=O)N[C@@H](COC(C)(C)C(F)(F)F)c1nc2cc(CN3CC(C(F)(F)F)NC3=O)ccc2[nH]1 (single isomer, unassigned) [Example 32, 4-Fluoro-1-isopropyl-N—((R)-1-(5-(((S*)-2-oxo-4-(trifluoromethyl)imidazolidin-1-yl)methyl)-1H-benzo[d]imidazol-2-yl)-2-((1,1,1-trifluoro-2-methylpropan-2-yl)oxy)ethyl)-1H-pyrazole-5-carboxamide] | < 50 | < 50 | 50 to 100 | 
